According to paper PMC9643456, “Matching amino acids membrane preference profile to improve activity of antimicrobial peptides” (Communications Biology, 2022):
≈ marks a conversion by molar mass, not a printed value. Square brackets hold non-standard residues; d marks the D form. Ends that are not written are not given here. Peptide text beside a SMILES is read from it.

Columns and labels:
[1] = test system: MDR A. baumannii; assay: microbe, parasite or virus in culture; settings: CLSI broth microdilution; CAMHB with 50 mg/L Ca2+, 10 mg/L Mg2+; 5 × 10^5 CFU/ml; 18 h 37 °C; triplicate; strain ATCC BAA-1605
Text: (§1) MDR Pseudomonas aeruginosa (CCARM 2180) was purchased from the Culture Collection of Antimicrobial Resistance Microbes (Seoul, Republic of Korea). MDR Acinetobacter baumannii (ATCC BAA-1605) and MDR Enterococcus faecalis (ATCC 51575) were purchased from the American Type Culture Collection (Manassas, VA, USA). MDR Staphylococcus aureus (KCCM 40510) was purchased from the Korean Culture Center of Microorganisms (Seoul, Republic of Korea). S. aureus (KCTC 1621) was purchased from the Korean Collection for Type Cultures. A. baumannii (KCCM 40203) was purchased from the Korean Culture Center of Microorganisms (Seoul, Republic of Korea).
(§2) To assess antimicrobial activity, the MIC50 and MIC90 were measured using broth microdilution following CLSI guidelines. […] Each experiment was performed in triplicate. Meropenem (Sigma, Darmstadt, Germany) and colistin were used as control antibiotics. Cation-adjusted Mueller–Hinton broth (CAMHB) (Becton, Dickinson and Company, Franklin Lakes, USA) with supplied calcium (50 mg/L) and magnesium (10 mg/L) was used for the CLSI-test condition. Bacteria in midlog phase and peptides were separately diluted in CAMHB. The bacteria and peptide solutions were then mixed in 96-well polyethylene plates (SPL, Gyeonggi-do, Korea) and incubated for 18 h at 37 °C. The final concentration for bacteria was 5 × 10^5 CFU/ml. […] The MIC was defined to be the lowest concentration of peptide without visible turbidity by comparing with control antibiotics with the unaided eye. […] Each experiment was performed in triplicate. MICs in albumin and acetic acid solutions were measured using the same protocol but with 0.2% bovine serum albumin (Bovogen, Keilor, Australia), 0.01% acetic acid (Merck, New Jersey, USA), and CAMHB with both calcium and magnesium. In addition, MICs used in the antibiotic resistance acquisition test, the outer–inner membrane permeation test, and the transmembrane potential test and for FE-SEM were individually determined. The final bacterial concentrations used were as follows: for resistance acquisition, optical density (OD) 0.01; for outer–inner membrane permeability assays (LB), OD 0.1; for the transmembrane potential test, 1 × 10^8 CFU/ml (OD 0.171); […]. Inhibitory activity unidentifiable by direct observation was determined by counting the CFUs. Each experiment was performed at least twice.

[2] = test system: MDR S. aureus; assay: microbe, parasite or virus in culture; settings: CLSI broth microdilution; CAMHB with 50 mg/L Ca2+, 10 mg/L Mg2+; 5 × 10^5 CFU/ml; 18 h 37 °C; triplicate; strain KCCM 40510
Text: as §1, §2

[3] = test system: human red blood cells; assay: Hemolytic activity; assay type: cell-based; settings: red cells of human, 18 h
Experimental: Human red blood cells (Zenbio, North Carolina, USA) and peptides were separately diluted in PBS (blood concentration, 8%). The blood cell and peptide solutions were then mixed in 96-well polyethylene plates (SPL, Gyeonggi-do, Korea) and incubated for 18 h at 37 °C. The final concentration of human red blood cells was 4%, while peptide concentrations were 100 μM, 50 μM, 25 μM, 12.5 μM, 6.25 μM, 3.13 μM, 1.56 μM, and 0.78 μM. After incubation, the plates were centrifuged at 1000 × g for 5 min, and the supernatants were transferred to 96-well polyethylene plates. Hemolysis levels were determined by measuring the absorbance at 540 nm with a SpectraMax plate spectrophotometer (Molecular Devices, California, USA). Control samples were treated with 1% Triton X-100 (for 100% hemolysis) or solution with 0 μM peptide (for 0% hemolysis) and melittin (for positive control). Each experiment was performed in triplicate.

[4] = test system: MDR E. faecalis; assay: microbe, parasite or virus in culture; settings: CLSI broth microdilution; CAMHB with 50 mg/L Ca2+, 10 mg/L Mg2+; 5 × 10^5 CFU/ml; 18 h 37 °C; triplicate; strain ATCC 51575
Text: as §1, §2

[5] = test system: MDR P. aeruginosa; assay: microbe, parasite or virus in culture; settings: CLSI broth microdilution; CAMHB with 50 mg/L Ca2+, 10 mg/L Mg2+; 5 × 10^5 CFU/ml; 18 h 37 °C; no visible turbidity; triplicate; strain CCARM 2180
Text: as §1, §2

Molecule | Minimum inhibitory concentrations, MDR A. baumannii [1] | Minimum inhibitory concentrations, MDR S. aureus [2] | Hemolysis percent, 25 μM [3] | Hemolysis percent, 50 μM [3] | Hemolysis percent, 100 μM [3] | Minimum inhibitory concentrations, MDR E. faecalis [4] | Minimum inhibitory concentrations, MDR P. aeruginosa [5]
CC(C)[C@@H](NC(=O)[C@H](N)Cc1c[nH]c2ccccc12)C(=O)N[C@@H](C(=O)N[C@@H](C(=O)N[C@@H](C(=O)N[C@H](Cc1c[nH]c2ccccc12)C(=O)N[C@H](CCCNC(=N)N)C(=O)N[C@H](CCCNC(=N)N)C(=O)N[C@H](CCCNC(=N)N)C(N)=O)C(C)C)C(C)C)C(C)C [WCopW44] (H-[dW][dV][dV][dV][dV][dW][dR][dR][dR]-NH2) | 2.5 µM (≈ 3.14 µg/mL) | 1.25 µM (≈ 1.57 µg/mL) | 0.11 ±0.03% | 0.87 ±0.36% | 4.48 ±1.01% | – | –
CC[C@@H](C)[C@@H](NC(=O)[C@@H](Cc1c[nH]c2ccccc12)NC(=O)[C@@H](CCC(=O)O)NC(=O)[C@@H](CC(C)C)NC(=O)[C@H](N)Cc1c[nH]c2ccccc12)C(=O)NCC(=O)N[C@H](CC(C)C)C(=O)N[C@H](CCCNC(=N)N)C(=O)N[C@H](CCCCN)C(=O)N[C@H](CCCCN)C(=O)N[C@H](CCCNC(=N)N)C(N)=O [WCopWE] (H-[dW][dL][dE][dW][dI]G[dL][dR][dK][dK][dR]-NH2) | 10 µM (≈ 14.8 µg/mL) | >20 µM | – | – | – | >20 µM | >20 µM
CC[C@@H](C)[C@@H](NC(=O)[C@@H](Cc1c[nH]c2ccccc12)NC(=O)[C@H](NC(=O)[C@@H](CC(C)C)NC(=O)[C@@H](Cc1c[nH]c2ccccc12)NC(=O)[C@H](N)CCCCN)C(C)C)C(=O)N[C@H](Cc1c[nH]c2ccccc12)C(=O)N[C@H](CCCNC(=N)N)C(=O)N[C@H](CCCNC(=N)N)C(=O)N[C@H](CCCNC(=N)N)C(N)=O [WCopW35] (H-[dK][dW][dL][dV][dW][dI][dW][dR][dR][dR]-NH2) | 0.63 µM (≈ 0.944 µg/mL) | 0.63 µM (≈ 0.944 µg/mL) | 1.18 ±0.34% | 2.71 ±0.63% | 6.07 ±1.01% | – | 2.5 µM (≈ 3.74 µg/mL)
CC(C)C[C@@H](NC(=O)[C@H](N)Cc1c[nH]c2ccccc12)C(=O)N[C@@H](C(=O)N[C@H](Cc1c[nH]c2ccccc12)C(=O)N[C@H](CCCCN)C(=O)N[C@H](Cc1c[nH]c2ccccc12)C(=O)N[C@H](CCCNC(=N)N)C(=O)N[C@H](CCCNC(=N)N)C(=O)N[C@H](CCCNC(=N)N)C(N)=O)C(C)C [WCopW37] (H-[dW][dL][dV][dW][dK][dW][dR][dR][dR]-NH2) | 2.5 µM (≈ 3.46 µg/mL) | 5 µM (≈ 6.92 µg/mL) | 0.13 ±0.02% | 0.08 ±0.01% | 0.16 ±0.03% | – | –
CC[C@@H](C)[C@@H](NC(=O)[C@@H](Cc1c[nH]c2ccccc12)NC(=O)[C@@H](CC(C)C)NC(=O)[C@H](N)Cc1c[nH]c2ccccc12)C(=O)N[C@H](Cc1c[nH]c2ccccc12)C(=O)N[C@H](CCCNC(=N)N)C(=O)N[C@H](CCCNC(=N)N)C(=O)N[C@H](CCCNC(=N)N)C(N)=O [WCopW41] (H-[dW][dL][dW][dI][dW][dR][dR][dR]-NH2) | 2.5 µM (≈ 3.18 µg/mL) | – | 0.01 ±0.01% | 0.04 ± 0.02% | 0.42 ±0.06% | 1.25 µM (≈ 1.59 µg/mL) | –
WLLWIALRKKR-NH2 [WCopW1] | – | – | 7.03% | 10.46% | 19.40% | – | > 20 µM
CC[C@@H](C)[C@@H](NC(=O)[C@@H](Cc1c[nH]c2ccccc12)NC(=O)[C@H](NC(=O)[C@@H](CC(C)C)NC(=O)[C@H](N)Cc1c[nH]c2ccccc12)C(C)C)C(=O)N[C@H](Cc1c[nH]c2ccccc12)C(=O)N[C@H](CCCNC(=N)N)C(=O)N[C@H](CCCNC(=N)N)C(N)=O [WCopW32] (H-[dW][dL][dV][dW][dI][dW][dR][dR]-NH2) | 2.5 µM (≈ 3.03 µg/mL) | 0.63 µM (≈ 0.765 µg/mL) | 1.66 ± 0.11% | 2.95 ± 0.21% | 4.53 ±0.01% | 0.63 µM (≈ 0.765 µg/mL) | –
CC[C@@H](C)[C@@H](NC(=O)[C@H](N)Cc1c[nH]c2ccccc12)C(=O)N[C@@H](C(=O)N[C@H](Cc1c[nH]c2ccccc12)C(=O)N[C@@H](C(=O)N[C@H](Cc1c[nH]c2ccccc12)C(=O)N[C@H](CCCNC(=N)N)C(=O)N[C@H](CCCNC(=N)N)C(=O)N[C@H](CCCNC(=N)N)C(N)=O)[C@H](C)CC)[C@H](C)CC [WCopW61] (H-[dW][dI][dI][dW][dI][dW][dR][dR][dR]-NH2) | 1.25 µM (≈ 1.73 µg/mL) | 0.63 µM (≈ 0.872 µg/mL) | 6.90 ± 0.03% | 8.91 ± 0.75% | 11.6 ±0.99% | – | 5 µM (≈ 6.92 µg/mL)
CC[C@@H](C)[C@@H](NC(=O)[C@@H](Cc1c[nH]c2ccccc12)NC(=O)[C@@H](CCCNC(=N)N)NC(=O)[C@@H](CCCNC(=N)N)NC(=O)[C@H](N)CCCNC(=N)N)C(=O)N[C@H](Cc1c[nH]c2ccccc12)C(=O)N[C@@H](C(=O)N[C@@H](C(=O)N[C@H](Cc1c[nH]c2ccccc12)C(N)=O)[C@H](C)CC)[C@H](C)CC [WCopW60] (H-[dR][dR][dR][dW][dI][dW][dI][dI][dW]-NH2) | 1.25 µM (≈ 1.73 µg/mL) | 0.63 µM (≈ 0.872 µg/mL) | 15.51 ± 0.64% | 15.14 ± 3.22% | 15.17 ± 0.19% | – | 5 µM (≈ 6.92 µg/mL)
CC[C@@H](C)[C@@H](NC(=O)[C@@H](Cc1c[nH]c2ccccc12)NC(=O)[C@H](NC(=O)[C@@H](CC(C)C)NC(=O)[C@@H](Cc1c[nH]c2ccccc12)NC(=O)[C@H](N)CC(=O)O)C(C)C)C(=O)N[C@H](Cc1c[nH]c2ccccc12)C(=O)N[C@H](CCCNC(=N)N)C(=O)N[C@H](CCCNC(=N)N)C(=O)N[C@H](CCCNC(=N)N)C(N)=O [WCopW36] (H-[dD][dW][dL][dV][dW][dI][dW][dR][dR][dR]-NH2) | – | 1.25 µM (≈ 1.86 µg/mL) | 4.03 ±0.40% | 7.48 ±0.90% | 9.86 ±1.62% | – | –
CC[C@@H](C)[C@@H](NC(=O)[C@@H](Cc1c[nH]c2ccccc12)NC(=O)[C@@H](CCCNC(=N)N)NC(=O)[C@H](N)CCCNC(=N)N)C(=O)N[C@H](Cc1c[nH]c2ccccc12)C(=O)N[C@@H](C(=O)N[C@@H](C(=O)N[C@H](Cc1c[nH]c2ccccc12)C(=O)N[C@H](CCCNC(=N)N)C(N)=O)[C@H](C)CC)C(C)C [WCopW54] (H-[dR][dR][dW][dI][dW][dV][dI][dW][dR]-NH2) | 0.63 µM (≈ 0.863 µg/mL) | 0.63 µM (≈ 0.863 µg/mL) | 8.38 ± 1.14% | 11.43 ± 2.42% | 35.13 ± 4.13% | – | 2.5 µM (≈ 3.42 µg/mL)
